Results taken from article PMC2453323 (PLoS Pathogens, 2008).

Columns and labels:
[1] = target: neuraminidase of A(H1N1) clinical isolate 0650/04 (Influenza A virus (H1N1), UniProt B4YYP0); assay: biochemical
[2] = target: neuraminidase of A/Solomon Islands/3/2006(H1N1) (SI06) (Influenza A virus, UniProt B4URD9); type: biochemical
[3] = target: neuraminidase of A(H1N1) clinical isolate 0286/07 (Influenza A virus (H1N1), UniProt D5F1R0); type: biochemical
[4] = target: neuraminidase of A/New Caledonia/20/99(H1N1) (NC99) (Influenza A virus, UniProt Q7TG96); assay: biochemical; type: biochemical
[5] = target: neuraminidase of A(H1N1) clinical isolate 1149/08 (Influenza A virus, UniProt G3LYQ1); type: biochemical
[6] = target: neuraminidase of A(H1N1) clinical isolate 1951/06 (Influenza A virus, UniProt B4URD9); type: biochemical
[7] = target: neuraminidase of A(H1N1) clinical isolate 0611/07 (Influenza A virus (H1N1), UniProt D5F1R0); type: biochemical
[8] = target: neuraminidase of A(H1N1) clinical isolate 0814/07 (Influenza A virus, UniProt D5F1R0); type: biochemical
[9] = target: neuraminidase of A(H1N1) clinical isolate 0692/07 (Influenza A virus (H1N1), UniProt A8C8J7); type: biochemical
[10] = target: neuraminidase of the 6 sensitive H1N1 viruses from the 2007–2008 season (Influenza A virus, UniProt D5F1R0); type: biochemical; conditions: read-out: Mean Km, group Mean
[11] = target: neuraminidase of the 5 pre-2007–2008 H1N1 viruses (Influenza A virus, UniProt B4URD9); type: biochemical; conditions: read-out: Mean Km, group Mean
[12] = target: neuraminidase of A(H1N1) clinical isolate 0974/08 (Influenza A virus, UniProt G3LYQ1); type: biochemical
[13] = target: neuraminidase of A(H1N1) clinical isolate 0497/07 (Influenza A virus (H1N1), UniProt D5F1R0); type: biochemical

| SMILES | Ki [1] [nM] | Km [2] [µM] | Km [3] [µM] | Km [4] [µM] | Km [5] [µM] | Km [6] [µM] | Km [7] [µM] | Km [8] [µM] | Km [9] [µM] | Km [10] [µM] | Km [11] [µM] | Km [12] [µM] | Km [1] [µM] | Km [13] [µM] | Ki [4] [nM] |
| --- | --- | --- | --- | --- | --- | --- | --- | --- | --- | --- | --- | --- | --- | --- | --- |
| CC(=O)N[C@H]1[C@H]([C@H](O)[C@H](O)CO)OC(C(=O)O)=C[C@@H]1N=C(N)N [Zana, zanamivir] | 0.2 |  |  |  |  |  |  |  |  |  |  |  |  |  |  |
| CC(=O)N[C@@H]1[C@@H](O)C[C@](Oc2ccc3c(C)cc(=O)oc3c2)(C(=O)O)O[C@H]1C(O)[C@H](O)CO (stereo partly shown) [MUNANA] |  | 25.1 | 8.5 | 27.4 | 10.4 | 29.5 | 8 | 9 | 31.5 | 9 ± 1.2 | 28 | 10.4 | 25.6 | 7.5 |  |
| CCOC(=O)C1=C[C@@H](OC(CC)CC)[C@H](NC(C)=O)[C@@H](N)C1 [OC, oseltamivir] | 0.2 |  |  |  |  |  |  |  |  |  |  |  |  |  | 0.19 |
